Measurements from patent publication US7452717B2, “Compositions and methods for sensitizing and inhibiting growth of human tumor cells” (St. Jude Children's Research Hospital, priority 1998, dated 2008).
“Also recorded” adds a separate entry of the source. Where two headings read alike, the source gives them in different places.

Experiments:
[1] = system: Rh30pIRESrabbit xenografts (expressing rabbit CE); assay: Rh30pIRESrabbit rhabdomyosarcoma xenografts in SCID mice; type: in vivo; conditions: 2.5 mg CPT-11/kg/day, 5 days/week for 2 weeks, every 21 days, three cycles
Description: (§1) The tumor growth rate is depicted on the Y-axis of each graph in terms of tumor volume and is plotted as a function of time in weeks (X-axis).
(§2) In this preclinical model, expression of the transfected cDNA for rabbit CE was maintained for at least 12 weeks.
(§3) Experiments were performed in this model to compare the responses of mice bearing human Rh30 and Rh30pIRESrabbit xenografts. Rh30 rhabdosarcoma xenografts were transfected with pIRESneo plasmid containing the cDNA for rabbit liver CE and selected with G418. Expression of CE was confirmed by biochemical assay using the CE substrate o-NPA and maintained for at least 12 weeks. Two groups of SCID mice were then injected with the transfected Rh30pIRESrabbit cells subcutaneously into the flanks. A third group of control mice was injected in identical fashion with Rh30 cells not transfected with the plasmid.

[2] = system: CEs purified from human tissues; conditions: cited from earlier work
human liver CE (hCE1) = molecular target: T1, human liver CE (hCE1) (Homo sapiens, UniProt P23141); assay: CPT-11 conversion assay, COS-7 cells expressing hCE1; type: in vitro ADME; conditions: plasmid pCIHUMCAR, enzyme hCE1
T1 construct: expressed in transfected cells; host or cells: COS-7 (sonicates of transiently transfected cells)

pig liver CE = assay: CPT-11 metabolism by commercially available pig liver CE; conditions: commercially available partially purified pig liver CE
From the text: (§4) This screening included enzymes from a series of sera, cell extracts and commercially available CEs using a rapid fluorometric assay.

Rh30 xenografts = assay: Rh30 rhabdomyosarcoma xenografts (no CE) in SCID mice; type: in vivo; conditions: Rh30 xenografts not expressing CE, 2.5 mg CPT-11/kg/day, 5 days/week for 2 weeks, every 21 days, three cycles
Description: as §1, §2, §3

[3] = system: COS-7 cells transfected with the parent plasmid; assay: Growth inhibition, COS-7 cells transfected with parent plasmid; type: cell-based, monkey; conditions: Primates, read-out: IC50 (CPT-11); COS-7 cells transfected with the parent plasmid (pCEneo)
Description: (§5) Growth inhibition assays were performed with COS-7 cells as previously described (Potter et al. 1998 Cancer Res. 52:2646-2651; Danks et al. 1998 Cancer Res. 52:2646-2651,1998). Forty-eight hours after transfection, 5×10^4 cells were plated into 1.5 cm diameter dishes and allowed to attach overnight. […] Cell number was determined by counting using a Coulter Multisyser II (Coulter Electronics, Luton, England) and growth inhibition curves were plotted using Prism software (GraphPad Software Inc., San Diego, Calif.).

[4] = system: U373 glioblastoma xenografts expressing rabbit liver CE; assay: U373 glioblastoma xenografts expressing rabbit CE in SCID mice; type: in vivo; conditions: CPT-11 7.5 mg/kg/day, three cycles
From the text: (§6) The tumor growth rate is depicted on the Y-axis in terms of tumor volume and is plotted as a function of time in weeks (X-axis). Open circles depict the tumor volume of untreated U373 xenografts expressing rabbit CE. Filled triangles depict the response of control xenografts (no rabbit CE) treated with CPT-11. Filled squares depict the response of cells expressing rabbit CE and treated with CPT-11. […] Each point represents the mean of 14 tumors in 7 individual mice.
(§7) Similar studies were performed employing U373 glioblastoma cells transfected with the pIRESneo plasmid or with pIRESneo containing the cDNA for rabbit liver CE and selected with G418. Expression of CE in the tumor cells was confirmed by biochemical assay using the substrate o-NPA. Cells were injected subcutaneously into the flanks of the SCID mice.

[5] = system: Cos7 cells expressing rabbit liver CE; assay: Cell survival of Cos7 cells transiently transfected with rabbit CE (pCIRABFL); type: cell-based, monkey; conditions: control Cos7 cells versus Cos7 cells transfected with CE
From the text: To confirm that the cDNA encoded CE, the 1.7 kb EcoRI fragment was ligated into pCIneo to generate pCIRABFL and the plasmid transiently transfected into Cos7 cells. pCIneo contains the SV40 origin of replication allowing plasmid amplification in cells expressing the large T antigen, such as Cos7.

[6] = system: COS-7 cells expressing hiCE; assay: Growth inhibition, COS-7 cells expressing hiCE; type: cell-based, monkey; conditions: Primates, read-out: IC50 (CPT-11), 2 h exposure, three days growth
Description: as §5

rabbit liver CE [7] = molecular target: rabbit liver CE (Oryctolagus cuniculus, UniProt P12337); conditions: commercially available partially purified rabbit liver CE
From the text: as §4

human NB-1691 xenografts = assay: NB-1691 xenograft model for MRD; type: in vivo, mice; conditions: 10 mg/kg CPT-11 daily for 5 days on two consecutive weeks
From the text: However, within 4-6 weeks, tumors are palpable in the exact position where the original xenograft was implanted. Since these tumors arise from cells that survived the initial cycle of chemotherapy, this model therefore mimics results seen in patients following surgical resection of the primary tumor and subsequent regrowth at the same site.

rabbit liver CE [8] = molecular target: T2, rabbit liver CE (Oryctolagus cuniculus, UniProt P12337); type: in vitro ADME; parameters: To amplify a full length rabbit CE cDNA, oligonucleotide primers RabNTERM; expressed in transfected cells; host or cells: COS-7 (sonicates of transiently transfected cells); conditions: COS-7 cells, plasmid pCIRAB, enzyme rabbit
T2 sequence (P12337 19-565): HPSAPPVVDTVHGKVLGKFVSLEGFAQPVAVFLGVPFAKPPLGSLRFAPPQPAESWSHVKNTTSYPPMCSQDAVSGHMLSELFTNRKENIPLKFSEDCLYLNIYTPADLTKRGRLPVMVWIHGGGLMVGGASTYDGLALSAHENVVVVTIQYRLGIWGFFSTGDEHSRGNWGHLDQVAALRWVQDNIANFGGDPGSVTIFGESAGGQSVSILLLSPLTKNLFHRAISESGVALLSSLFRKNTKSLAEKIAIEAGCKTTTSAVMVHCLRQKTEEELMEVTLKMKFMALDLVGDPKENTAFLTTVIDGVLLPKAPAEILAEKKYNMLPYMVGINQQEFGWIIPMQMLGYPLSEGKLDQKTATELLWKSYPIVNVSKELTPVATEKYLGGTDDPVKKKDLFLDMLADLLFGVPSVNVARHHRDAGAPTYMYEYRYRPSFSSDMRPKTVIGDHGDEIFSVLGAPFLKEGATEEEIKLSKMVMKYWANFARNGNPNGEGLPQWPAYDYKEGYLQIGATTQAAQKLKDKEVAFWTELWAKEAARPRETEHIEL

Rh30 cells = assay: Growth inhibition of Rh30 cells by CPT-11 pre-incubated with rabbit liver CE; type: cell-based, human
From the text: Another aspect of the present invention relates to the ability of compositions comprising a polynucleotide encoding a carboxylesterase and a disease-specific responsive promoter of selected tumor cells to sensitize the tumor cells to a chemotherapeutic prodrug. The ability of a rabbit CE or a human intestinal CE of the present invention to sensitize human tumor cells to CPT-11 was examined. Experiments were first performed to confirm that the metabolite produced by the activity of a CE of the present invention is biologically active in vitro. Rh30 cells were exposed to the products of each reaction for one hour and the percentage of growth inhibition was determined. […] Similar confirmatory experiments were performed with COS-7 cells.
Each reaction mixture was then filter-sterilized and Rh30 cells were exposed to drug for one hour, at which time the medium was replaced with drug-free medium containing serum. […] Cells were allowed to grow for 3 cell doubling times and cell numbers were determined.

[9] = system: U373 glioblastoma xenografts transfected with control plasmid; assay: U373 glioblastoma xenografts with control plasmid in SCID mice; type: in vivo; conditions: U373 xenografts with control plasmid (no rabbit CE), CPT-11 7.5 mg/kg/day, three cycles
From the text: as §6, §7

Rh18 RMS xenografts = conditions: cited from earlier work
topoisomerase I = topoisomerase I (Homo sapiens, UniProt P11387); conditions: cited from earlier work
rabbit liver CE [10] = molecular target: T2, rabbit liver CE; type: biochemical; parameters: To amplify a full length rabbit CE cDNA, oligonucleotide primers RabNTERM; expressed in transfected cells; conditions: in vitro, rabbit CE (FIG. 6)
From the text: FIG. 6 is a linegraph showing the conversion of APC, depicted on the X-axis at nanomolar concentrations, to SN-38, depicted on the Y-axis at nanomolar concentrations, in vitro by the activity of rabbit liver CE given at doses of 0 (filled cross), 10 (filled hexagon), 25 (filled triangle), 50 (filled circle) or 100 (filled square) units. Data presented represent the mean response at each dose level.
(§8) No known human enzyme activates APC. […] Thus, the combination of APC and sensitization of selected tumor cells with rabbit liver CE as described above can be used to produce a tumor-specific cell death while greatly minimizing the toxic side effects associated with administration of chemotherapy.

[11] = system: U-373 glioma cells expressing rabbit liver CE; assay: Growth inhibition by APC, U-373 glioma cells expressing rabbit liver CE; type: cell-based, human; conditions: U-373 cells expressing rabbit liver CE, 2 h exposure (FIG. 7)
Description: FIG. 7 is a linegraph showing a comparison of the sensitization, depicted as % survival on the Y-axis, of U-373 glioma cells exposed to APC, depicted as log[APC] at concentrations from 10^−8 to 10^−5 M on the X-axis, from in situ expression of rabbit liver CE (filled squares) and human alveolar macrophage CE (filled circles). Cells were exposed for 2 hours to APC.
as §8

[12] = in humans; cited from earlier work

T1 sequence (P23141 18-567): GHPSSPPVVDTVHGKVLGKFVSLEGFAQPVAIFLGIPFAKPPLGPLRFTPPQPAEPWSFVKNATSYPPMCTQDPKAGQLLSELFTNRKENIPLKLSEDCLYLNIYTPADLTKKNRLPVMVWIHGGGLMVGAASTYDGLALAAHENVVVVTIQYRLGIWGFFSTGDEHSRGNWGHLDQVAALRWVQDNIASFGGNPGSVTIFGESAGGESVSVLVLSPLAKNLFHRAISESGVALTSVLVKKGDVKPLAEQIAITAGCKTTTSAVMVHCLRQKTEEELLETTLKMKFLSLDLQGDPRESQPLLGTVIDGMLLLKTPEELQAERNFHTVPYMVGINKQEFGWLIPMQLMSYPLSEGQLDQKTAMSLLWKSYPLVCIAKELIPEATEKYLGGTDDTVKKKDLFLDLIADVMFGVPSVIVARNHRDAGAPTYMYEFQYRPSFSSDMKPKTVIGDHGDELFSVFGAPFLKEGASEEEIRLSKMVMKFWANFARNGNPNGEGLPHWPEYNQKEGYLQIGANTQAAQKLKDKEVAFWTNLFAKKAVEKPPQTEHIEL
Chain of topoisomerase I (P11387 whole entry): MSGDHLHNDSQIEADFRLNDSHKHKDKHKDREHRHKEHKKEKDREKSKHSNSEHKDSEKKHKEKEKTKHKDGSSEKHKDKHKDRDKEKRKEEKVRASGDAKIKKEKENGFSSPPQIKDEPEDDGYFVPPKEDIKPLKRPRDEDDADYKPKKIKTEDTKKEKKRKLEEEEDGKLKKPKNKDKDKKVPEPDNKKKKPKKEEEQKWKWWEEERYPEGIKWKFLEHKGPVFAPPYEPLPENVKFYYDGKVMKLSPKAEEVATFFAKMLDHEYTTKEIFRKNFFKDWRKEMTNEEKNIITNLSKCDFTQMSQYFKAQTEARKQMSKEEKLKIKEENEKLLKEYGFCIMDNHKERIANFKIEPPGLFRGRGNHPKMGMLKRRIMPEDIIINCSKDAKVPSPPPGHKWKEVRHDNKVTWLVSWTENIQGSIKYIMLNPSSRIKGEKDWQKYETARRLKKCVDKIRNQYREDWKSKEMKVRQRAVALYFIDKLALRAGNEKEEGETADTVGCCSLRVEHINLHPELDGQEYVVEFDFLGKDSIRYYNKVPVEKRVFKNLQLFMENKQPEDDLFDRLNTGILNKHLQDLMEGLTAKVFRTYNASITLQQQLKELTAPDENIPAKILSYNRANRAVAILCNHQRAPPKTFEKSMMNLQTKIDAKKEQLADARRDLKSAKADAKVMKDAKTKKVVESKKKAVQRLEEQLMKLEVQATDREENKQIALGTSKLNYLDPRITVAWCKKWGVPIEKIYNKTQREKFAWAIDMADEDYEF

CCc1c2c(nc3ccc(OC(=O)N4CCC(N5CCCCC5)CC4)cc13)-c1cc3c(c(=O)n1C2)COC(=O)[C@]3(O)CC [CPT-11, 7-ethyl-10-[4-(1-piperidino)-1-piperidino]carbonyloxycamptothecin]
tumor response [1]: regressed completely and did not regrow during the 12 weeks of the study; also recorded: complete tumor regression, even out to 12 weeks | prodrug converted to active drug (SN-38) [2]: less than 5% | CPT-11 Conversion (human liver CE (hCE1)): 9.6 pmol/h/mg | metabolism of CPT-11 (pig liver CE): metabolized CPT-11 efficiently | tumor response (Rh30 xenografts): regressed only transiently, regrowing within one week after CPT-11 treatment had stopped; also recorded: initial regression but regrowth; also recorded: regressed only transiently with CPT-11 treatment, with regrowth occurring within one week after CPT-11 treatment stopped | IC50 [3]: 5400 nM | tumor response [4]: regressed completely; also recorded: tumor regression was seen only in treated cells expressing rabbit CE | difference in sensitivity to CPT-11 (% cell survival, FIG. 5) [5]: approximately 350 fold | IC50 [6]: 500 nM | metabolism of CPT-11 (rabbit liver CE [7]): metabolized CPT-11 efficiently | time until tumors are palpable again at the original site (human NB-1691 xenografts): 4-6 weeks | tumor response (human NB-1691 xenografts): complete regression of the tumor | CPT-11 Conversion (rabbit liver CE [8]): 2323.0 pmol/h/mg | inhibition at 1 µM (Rh30 cells; Homo sapiens, Rh30, 1 h, read-out: inhibition of cell growth): 30 to 60% | inhibition of cell growth (Rh30 cells; Rh30 cells, 1 to 5 units of CE inactivated by heating): no inhibition of cell growth | tumor response [9]: stable disease with no significant regression; also recorded: stable disease but no significant regression | tumor response (Rh18 RMS xenografts; 10 mg/kg/day, same schedule): only partial tumor regression | tumor response (Rh18 RMS xenografts; 20 mg of CPT-11/kg/day daily for 5 days for two weeks): complete regression

CCc1c2c(nc3ccc(O)cc13)-c1cc3c(c(=O)n1C2)COC(=O)[C@]3(O)CC [SN-38, 7-ethyl-10-hydroxy-camptothecin]
inhibition of topoisomerase I (topoisomerase I): potent inhibitor of topoisomerase I

CCc1c2c(nc3ccc(OC(=O)N4CCC(NCCCCC(=O)O)CC4)cc13)-c1cc3c(c(=O)n1C2)COC(=O)[C@]3(O)CC [APC]
conversion of APC to SN-38 (rabbit liver CE [10]): converted to SN-38 in a concentration-dependent manner | sensitization to growth inhibitory effects of APC [11]: sensitized to the growth inhibitory effects of APC | conversion to an active metabolite [12]: not converted to an active metabolite in humans
